{"source": "ChEMBL document CHEMBL1144762", "about": "“Diterpenoids from the roots of Suregada glomerulata” (J Nat Prod, 2008)", "assay_type_in_all_cases": "functional, cell-based", "key": {"[1]": {"experiment": "Cytotoxicity against human Bel 7402 cells by MTT assay"}, "[2]": {"tested_on": "A2780", "experiment": "Cytotoxicity against human A2780 cells by MTT assay"}, "[3]": {"tested_on": "HCT-8", "experiment": "Cytotoxicity against human HCT8 cells by MTT assay"}, "[4]": {"tested_on": "A549", "experiment": "Cytotoxicity against human A549 cells by MTT assay"}, "[5]": {"experiment": "Cytotoxicity against human BGC 823 cells by MTT assay"}}}
{"smiles": "CC1=C2C(=C[C@H]3[C@]4(C)CCC(=O)C(C)(C)[C@H]4CC[C@]34O[C@H]24)OC1=O", "values": [{"measurement": "IC50", "setting": "[1]", "value": 7.53, "unit": "µg/mL"}, {"measurement": "IC50", "setting": "[2]", "value": 8.22, "unit": "µg/mL"}, {"measurement": "IC50", "setting": "[3]", "value": "> 10", "unit": "µg/mL"}, {"measurement": "IC50", "setting": "[4]", "value": "> 10", "unit": "µg/mL"}, {"measurement": "IC50", "setting": "[5]", "value": "> 10", "unit": "µg/mL"}]}
{"smiles": "O=c1[nH]cc(F)c(=O)[nH]1", "note": "[FLUOROURACIL]", "values": [{"measurement": "IC50", "setting": "[1]", "value": 0.54, "unit": "µg/mL"}, {"measurement": "IC50", "setting": "[2]", "value": 0.65, "unit": "µg/mL"}, {"measurement": "IC50", "setting": "[3]", "value": 0.54, "unit": "µg/mL"}, {"measurement": "IC50", "setting": "[4]", "value": 0.18, "unit": "µg/mL"}, {"measurement": "IC50", "setting": "[5]", "value": 0.7, "unit": "µg/mL"}]}
